Legend:
Type in all cases: cell-based
[1] = test system: Lovo cells; test: Cancer cell proliferation inhibition (Cell Counting Kit-8), colorectal cancer cell line; settings: 1000 nM, cultured seven to 11 days; for inhibition at 1 µM: Homo sapiens, LoVo, 264 h, read-out: % inhibition rate LoVo
Experimental: (§1) In addition, as one example of solid cancer in which an overexpression of EZH2 and a consequent disease association therebetween is reported, a proliferation inhibitory activity of the 1,3-benzodioxole derivative compounds represented by chemical formula I of the present invention was evaluated in Lovo cells as a colorectal cancer cell line, SW-13 cells as an adrenal cancer cell line, MIA-PaCa-2 cells as a pancreatic cancer cell line, and NCI-H1299 cells as a lung cancer cell line.
(§2) Each cell line (G401 cell, MKN-45 cell, Lovo cell, SW-13 cell, MIA-PaCa-2, NCI-H1299) of Table 2 below was cultured using RPMI1640, McCoy's 5a, L-15 or DMEM containing 10% fetal bovine serum, and the cells were seeded into wells of a 96-well culture dish at 100 to 1,000 cells each, and a test substance 1000 nM was cultured for seven to 11 days after drug treatment. After the culture, the cells were measured according to a manufacturer's instructions using Cell Counting Kit-8, and a cell proliferation inhibitory effect (% inhibition rate) of the test substance was obtained.
(§3) The cell proliferation inhibitory effect (% inhibition rate) of the test substance was calculated using a following equation. % inhibition rate = {1−(testgroup/controlgroup)} X 100 [formula]

[2] = test system: G401 cells; test: Cancer cell proliferation inhibition (Cell Counting Kit-8), rhabdoid tumor cell line; settings: 1000 nM, cultured seven to 11 days; for % inhibition rate G401: 1 µM; for inhibition at 1 µM: Homo sapiens, G-401, 264 h, read-out: % inhibition rate G401
Excerpt: (§4) Among solid cancer cells, in G401 cells in which expression of SMARCB1, which is a member of switch/sucrosenon-fermenting (SWI/SNF), is defective as a cell line of a rhabdoid tumor in which a therapeutic effect may be expected through dual inhibition of EZH1/2, and MKN-45 cells in which expression of ARID1A, which is a member of SWI/SNF, is defective as a gastric cancer cell line, a proliferation inhibitory ability of the 1,3-benzodioxole derivative compounds represented by chemical formula I of the present invention was evaluated.
as §2, §3

[3] = test system: MKN-45 cells; test: Cancer cell proliferation inhibition (Cell Counting Kit-8), gastric cancer cell line; settings: 1000 nM, cultured seven to 11 days; for inhibition at 1 µM: Homo sapiens, MKN-45, 264 h, read-out: % inhibition rate MKN -45
Excerpt: as §4, §2, §3

[4] = test system: SW-13 cells; test: Cancer cell proliferation inhibition (Cell Counting Kit-8), adrenal cancer cell line; settings: 1000 nM, cultured seven to 11 days; for inhibition at 1 µM: Homo sapiens, SW13, 264 h, read-out: % inhibition rate SW-13
Experimental: as §1, §2, §3

[5] = test system: MIA-PaCa-2 cells; test: Cancer cell proliferation inhibition (Cell Counting Kit-8), pancreatic cancer cell line; settings: 1000 nM, cultured seven to 11 days; for inhibition at 1 µM: Homo sapiens, MIA PaCa-2, 264 h, read-out: % inhibition rate MIA-Paca2
Experimental: as §1, §2, §3

[6] = test system: NCI-H1299 cells; test: Cancer cell proliferation inhibition (Cell Counting Kit-8), lung cancer cell line; settings: 1000 nM, cultured seven to 11 days; for inhibition at 1 µM: Homo sapiens, NCI-H1299, 264 h, read-out: % inhibition rate NCI-H129 9
Experimental: as §1, §2, §3

CSc1cc(C)[nH]c(=O)c1CNC(=O)c1cc(-c2ccc(N3C[C@@H](C)O[C@@H](C)C3)nc2)c2c(c1C)OC(C)(C1CCN(C(=O)C(F)(F)F)CC1)O2 (single isomer, unassigned) [Compound 60]
% inhibition rate LoVo [1]: +++ (+++: ≥70%)
% inhibition rate G401 [2]: + (+: ≤30%)
% inhibition rate MKN -45 ([3]; 1 µM): + (+: ≤30%)
% inhibition rate SW-13 ([4]; 1 µM): + (+: ≤30%)
% inhibition rate MIA-Paca2 [5]: + (+: ≤30%)
% inhibition rate NCI-H129 9 ([6]; 1 µM): + (+: ≤30%)

CSc1cc(C)[nH]c(=O)c1CNC(=O)c1cc(-c2ccc(N3C[C@@H](C)O[C@@H](C)C3)nc2)c2c(c1C)OC(C)([C@H]1CC[C@H](N3CC(OC(C)C)C3)CC1)O2 (stereo partly drawn) [Compound 105, 7-(6-((2S,6R)-2,6-dimethylmorpholino)pyridin-3-yl)-2-(trans-4-(3-isopropoxyazetidin-1-yl)cyclohexyl)-2,4-dimethyl-N-((6-methyl-4-(methylthio)-2-oxo-1,2-dihydropyridin-3-yl)methyl)benzo[d][1,3]dioxole-5-carboxamide]
inhibition at 1 µM [1]: ≥ 70%
inhibition at 1 µM [2]: 30 to 70%
inhibition at 1 µM [3]: ≥ 70%
inhibition at 1 µM [4]: ≥ 70%
inhibition at 1 µM [5]: ≥ 70%
inhibition at 1 µM [6]: ≥ 70%

CSc1cc(C)[nH]c(=O)c1CNC(=O)c1cc(-c2ccc(N3CC(C)CC(C)C3)nc2)c2c(c1C)OC(C)(C1CCN(CC(F)(F)F)CC1)O2 (stereo not drawn) [Compound 37, 7-(6-(3,5-dimethylpiperidin-1-yl)pyridin-3-yl)-2,4-dimethyl-N-((6-methyl-4-(methylthio)-2-oxo-1,2-dihydropyridin-3-yl)methyl)-2-(1-(2,2,2-trifluoroethyl)piperidin-4-yl)benzo[d][1,3]dioxole-5-carboxamide]
inhibition at 1 µM [1]: ≥ 70%
inhibition at 1 µM [2]: ≤ 30%
inhibition at 1 µM [3]: ≤ 30%
inhibition at 1 µM [4]: ≤ 30%
inhibition at 1 µM [5]: ≤ 30%
inhibition at 1 µM [6]: 30 to 70%

CSc1cc(C)[nH]c(=O)c1CNC(=O)c1cc(-c2ccc(N3C[C@@H](C)O[C@@H](C)C3)nc2)c2c(c1C)OC(C)(C1CCN(C(C)C)CC1)O2 (single isomer, unassigned) [Compound 52]
% inhibition rate LoVo ([1]; 1 µM): + (+: ≤30%)
% inhibition rate G401 [2]: + (+: ≤30%)
% inhibition rate MKN -45 [3]: + (+: ≤30%)
% inhibition rate SW-13 ([4]; 1 µM): + (+: ≤30%)
% inhibition rate MIA-Paca2 [5]: + (+: ≤30%)
% inhibition rate NCI-H129 9 ([6]; 1 µM): + (+: ≤30%)

CCN1CCC(C2(C)Oc3c(-c4ccc(N5CCOCC5)nc4)cc(C(=O)NCc4c(SC)cc(C)[nH]c4=O)c(C)c3O2)CC1 (single isomer, unassigned) [Compound 67, 2-(1-ethylpiperidin-4-yl)-2,4-dimethyl-N-((6-methyl-4-(methylthio)-2-oxo-1,2-dihydropyridin-3-yl)methyl)-7-(6-morpholinopyridin-3-yl)benzo[d][1,3]dioxole-5-carboxamide]
% inhibition rate LoVo ([1]; 1 µM): + (+: ≤30%)
% inhibition rate G401 [2]: + (+: ≤30%)
% inhibition rate MKN -45 ([3]; 1 µM): + (+: ≤30%)
% inhibition rate SW-13 [4]: + (+: ≤30%)
% inhibition rate MIA-Paca2 [5]: + (+: ≤30%)
% inhibition rate NCI-H129 9 [6]: + (+: ≤30%)

CSc1cc(C)[nH]c(=O)c1CNC(=O)c1cc(-c2ccc(N3CCOCC3)nc2)c2c(c1C)OC(C)(C1CCN(CC(F)F)CC1)O2 (single isomer, unassigned) [Compound 65, 2-(1-(2,2-difluoroethyl)piperidin-4-yl)-2,4-dimethyl-N-((6-methyl-4-(methylthio)-2-oxo-1,2-dihydropyridin-3-yl)methyl)-7-(6-morpholinopyridin-3-yl)benzo[d][1,3]dioxole-5-carboxamide]
% inhibition rate LoVo ([1]; 1 µM): ++ (++: more than 30% and less than 70%)
% inhibition rate G401 [2]: + (+: ≤30%)
% inhibition rate MKN -45 [3]: ++ (++: more than 30% and less than 70%)
% inhibition rate SW-13 ([4]; 1 µM): + (+: ≤30%)
% inhibition rate MIA-Paca2 [5]: + (+: ≤30%)
% inhibition rate NCI-H129 9 [6]: + (+: ≤30%)

CSc1cc(C)[nH]c(=O)c1CNC(=O)c1cc(-c2ccc(N3C[C@@H](C)O[C@@H](C)C3)nc2)c2c(c1C)OC(C)(C1CCN(CC(F)F)CC1)O2 (single isomer, unassigned) [Compound 48]
% inhibition rate LoVo [1]: +++ (+++: ≥70%)
% inhibition rate G401 [2]: + (+: ≤30%)
% inhibition rate MKN -45 ([3]; 1 µM): + (+: ≤30%)
% inhibition rate SW-13 ([4]; 1 µM): + (+: ≤30%)
% inhibition rate MIA-Paca2 [5]: + (+: ≤30%)
% inhibition rate NCI-H129 9 [6]: ++ (++: more than 30% and less than 70%)

CSc1cc(C)[nH]c(=O)c1CNC(=O)c1cc(-c2ccc(N3C[C@@H](C)O[C@@H](C)C3)nc2)c2c(c1C)OC(C)(C1CCN(CCCC(F)(F)F)CC1)O2 (single isomer, unassigned) [Compound 58]
% inhibition rate LoVo ([1]; 1 µM): ++ (++: more than 30% and less than 70%)
% inhibition rate G401 [2]: + (+: ≤30%)
% inhibition rate MKN -45 ([3]; 1 µM): + (+: ≤30%)
% inhibition rate SW-13 ([4]; 1 µM): + (+: ≤30%)
% inhibition rate MIA-Paca2 ([5]; 1 µM): + (+: ≤30%)
% inhibition rate NCI-H129 9 ([6]; 1 µM): + (+: ≤30%)

CSc1cc(C)[nH]c(=O)c1CNC(=O)c1cc(-c2ccc(N3C[C@@H](C)O[C@@H](C)C3)nc2)c2c(c1C)OC(C)([C@H]1CC[C@H](N3CC(CC(F)(F)F)C3)CC1)O2 (stereo partly drawn) [Compound 102, 7-(6-((2S,6R)-2,6-dimethylmorpholino)pyridin-3-yl)-2,4-dimethyl-N-((6-methyl-4-(methylthio)-2-oxo-1,2-dihydropyridin-3-yl)methyl)-2-(trans-4-(3-(2,2,2-trifluoroethyl)azetidin-1-yl)cyclohexyl)benzo[d][1,3]dioxole-5-carboxamide]
inhibition at 1 µM [1]: ≥ 70%
inhibition at 1 µM [2]: 30 to 70%
inhibition at 1 µM [3]: 30 to 70%
inhibition at 1 µM [4]: ≥ 70%
inhibition at 1 µM [5]: ≥ 70%
inhibition at 1 µM [6]: ≤ 30%

CSc1cc(C)[nH]c(=O)c1CNC(=O)c1cc(-c2ccc(N3C[C@@H](C)O[C@@H](C)C3)nc2)c2c(c1C)OC(C)(C1CCN(CCc3ccccc3)CC1)O2 (single isomer, unassigned) [Compound 56]
% inhibition rate LoVo [1]: +++ (+++: ≥70%)
% inhibition rate G401 [2]: ++ (++: more than 30% and less than 70%)
% inhibition rate MKN -45 ([3]; 1 µM): + (+: ≤30%)
% inhibition rate SW-13 ([4]; 1 µM): + (+: ≤30%)
% inhibition rate MIA-Paca2 [5]: + (+: ≤30%)
% inhibition rate NCI-H129 9 ([6]; 1 µM): + (+: ≤30%)

Reference: patent publication EP4740948A1 (Dong Wha Pharm. Co., Ltd., priority 2023, dated 2025)
